molecular target: T1, Dual specificity protein phosphatase 1 (Homo sapiens, UniProt P28562); experiment: MKP-1 phosphatase inhibitors, dose response, biochemical, probe assessment (AID 674)
T1 sequence (P28562 whole entry): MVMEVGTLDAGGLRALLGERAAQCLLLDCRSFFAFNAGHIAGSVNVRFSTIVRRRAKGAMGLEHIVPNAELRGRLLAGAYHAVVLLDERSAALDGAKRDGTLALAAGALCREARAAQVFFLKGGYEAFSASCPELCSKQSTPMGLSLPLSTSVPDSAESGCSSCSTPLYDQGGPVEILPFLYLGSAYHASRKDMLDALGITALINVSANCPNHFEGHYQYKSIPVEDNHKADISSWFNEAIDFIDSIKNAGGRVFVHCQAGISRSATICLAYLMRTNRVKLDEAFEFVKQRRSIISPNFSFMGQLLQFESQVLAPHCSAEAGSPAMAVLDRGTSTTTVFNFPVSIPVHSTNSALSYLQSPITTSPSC

| SMILES | IC50 |
| --- | --- |
| O=C(Nc1ccc2nc(-c3ccco3)c(-c3ccco3)nc2c1)N1CCCCCC1 | > 50 µM |
| Cc1ccc2c(c1C)NC(C(=O)O)C1CC=CC21 (stereo not drawn) | 42.5 µM |
| O=C(O)C1Nc2c(O)cccc2C2C=CCC12 (stereo not drawn) | > 50 µM |
| Cn1ncnc2c(=O)n(C)c(=O)nc1-2 | 0.423 µM |
| [O-]/[N+](=C\c1ccncc1)c1ccccc1 | > 50 µM |
| COc1cccc2c(C)c(C(=O)O)[nH]c12 | > 50 µM |
| O=C1C=Cc2ccccc2C1=O [1,2-dihydronaphthalene-1,2-dione] | > 50 µM |
| CCn1nc(-c2ccccc2)nc2c(=O)n(C)c(=O)nc1-2 [1-Ethyl-6-methyl-3-phenyl-1H-pyrimido[5,4-e][1,2,4]triazine-5,7-dione] | 0.485 µM |
| [O-]/[N+](=C\c1ccc(OC(F)F)cc1)c1ccccc1 [1-[4-(difluoromethoxy)phenyl]-N-phenylmethanimine oxide] | > 50 µM |
| CCn1nc(-c2cccs2)nc2c(=O)n(C)c(=O)nc1-2 [1-ethyl-6-methyl-3-thiophen-2-yl-pyrimido[5,4-e][1,2,4]triazine-5,7-dione] | 0.333 µM |
| O=C1Cc2ccccc2C(=O)N1CCc1ccccc1 [2-(2-phenylethyl)-4H-isoquinoline-1,3-dione] | > 50 µM |
| N#Cc1c(N)sc(=S)c2c1CCN(Cc1ccccc1)C2 [3-Amino-7-benzyl-1-thioxo-5,6,7,8-tetrahydro-1H-thiopyrano[3,4-c]pyridine-4-carbonitrile] | 2.38 µM |
| Cc1ccccc1Nc1cc2ccccc2c(O)n1 [3-[(2-methylphenyl)amino]-2H-isoquinolin-1-one] | 8.75 µM |
| COc1ccc(Br)cc1C=c1sc2nc(-c3ccco3)nn2c1=O [5-[(5-bromanyl-2-methoxy-phenyl)methylidene]-2-(furan-2-yl)-[1,3]thiazolo[3,2-b][1,2,4]triazol-6-one] | 7.02 µM |
| CC(=O)Nc1cc(OC(C)=O)c2nonc2c1OC(C)=O [Acetic acid 7-acetoxy-5-acetylamino-benzo[1,2,5]oxadiazol-4-yl ester] | > 50 µM |
| CCOC(=O)C(C(=O)OCC)c1cc(Br)c2noc3c2c1C(=O)c1ccccc1-3 [MLS000038842] | > 50 µM |
| Oc1nc(Nc2ccccc2)cc2ccccc12 [MLS000043701] | 10.7 µM |
| O=C1C=Cc2ccccc2/C1=C/NC12CN3CCN(CN(C3)C1)C2 [MLS000071484] | > 50 µM |
| Cc1c(N=c2c(=O)c3ccccc3c2=O)c(=O)n(-c2ccccc2)n1C [MLS000105950] | 43.8 µM |
| CCOc1ccc2noc3c2c1C(=O)c1ccccc1-3 [MLS000106837] | > 50 µM |
| COc1ccc2noc3c2c1C(=O)c1ccccc1-3 [MLS000106874] | > 50 µM |
| c1ccc(CSc2nnc(-c3ccco3)c(-c3ccco3)n2)cc1 [MLS-0029114.0001] | > 50 µM |
| Cc1ccc2c(c1)C1C=CCC1C(C(=O)O)N2 (stereo not drawn) [MLS-0067149.0001] | > 50 µM |
| O=C(NC1(O)C(=O)c2ccccc2C1=O)c1ccccc1 [N-(2-hydroxy-1,3-dioxo-2-indenyl)benzamide] | > 50 µM |
| COc1cccc2c1NC(C(=O)O)C1CC=CC21 (stereo not drawn) [SMR000009698] | > 50 µM |
| O=C(OC1CCCCC1)c1ccc2c(c1)C1C=CCC1C(C(=O)O)N2 (stereo not drawn) [SMR000019385] | 4.61 µM |
| N#Cc1c(N2CCCC2)nc(N)c2c(N)nc(N3CCCC3)cc12 [SMR000061605] | 14.6 µM |
| Nc1cccc2cnccc12 [isoquinolin-5-amine] | > 50 µM |

Source: BindingDB's records for doi:10.7270/Q28K77GS (University of Pittsburgh, 2007)
